Results reported in patent US4931437A, “8-azaxanthine derivatives, and pharmaceutical compositions containing them” (Malesci Istituto Farmacobiologico S.p.A., priority 1986, dated 1990).
Read-outs that look alike come from different tables or passages of the source.

Assays:
bronchospasm = assay: Antibronchospastic activity (aerosol ovalbumin, sensitized guinea pigs, oral); assay type: in vivo, guinea pig; conditions: for Oral antibronchospastic activity (aerosol ovalbumin guinea-pig) A.U.C. 0 → 3h Index: ratio between equieffective doses of theophylline and tested compound, AUC of % inhibition 0-3 h
Description: Fasted (16 h) male and female guinea pigs were sensitized by ovalbumin (25 mg/Kg. s.c. and 25 mg/Kg. i.p.) (Herxheimer and Stresemann--Arch. It. Pharmacodyn. Ther. 125.126; 1960). After two weeks, animals were challenged, by an aerosol of 0.5% ovalbumin recording the latency time (T1) of the first bronchospasm. A week later, the test was repeated in the same animals 1-3 hours after drug administration (T2). % of inhibition was determined as [formula] where T1 was control latency time, T2 was latency time after drug administration. […] The area under curve (AUC) expressing the % inhibition plotted toward time (0-3 h) after drug dosing, was calculated.

[1] = test system: heart rate and blood pressure; conditions: in vivo, po
Description: Fasted (16 h) normotensive male Wistar rats weighing 300-380 g. were used. The animals were prewarmed by means of infrared lamp for 15 min. before recording blood pressure and heart rate with the tale-cuff method (Maffii G. e Coll.--Arch. It. Sci. Farm. 12, 3; 1962). Recording were performed before and 30'-90'--3 h after oral drug administration. […] The % increase in heart rate was plotted against the log dose. […] In table 2 the average value of the indexes was reported.

[2] = Acute toxicity (oral LD50); design: species or system male Swiss mice; conditions: in vivo, mouse, deaths in ten days, Litchfield and Wilcoxon, limits in parentheses, max dose generally 500 mg/Kg, read-out: DL/50 (mouse os)
Description: LD50 was calculated according to Litchfield and Wilcoxon method (J. Pharm. Expt. Ther. 96, 99; 1949). The maximum dose administered was generally 500 mg/Kg.

[3] = Effects on CNS: cardiazole (CZ) induced convulsions; conditions: mouse, in vivo, po
Description: (§1) Fasted (20 h) male Swiss mice (20 g b.w.) received orally the compounds 1 h before cardiazole (CZ) or chlordiazepoxide (CDO) administration.
CZ was injected i.p. in a fully convulsive dose which produced death in about 10% of animals (60-100 mg/Kg.). Appropriate dose was determined before each experimental session.
(§2) In the untreated animals, CDO 100 mg/Kg i.p. induced sleep lasting 20-30 min. Sleeping time was defined as the time elapsing from the loss to the recovery of the righting reflex. Pretreated animals were observed up to a maximum of 6 h.

[4] = Effects on CNS: sleeping time following chlordiazepoxide (CDO) treatment; conditions: mouse, in vivo, po
Description: as §1, §2

Structure (SMILES) | Oral antibronchospastic activity (aerosol ovalbumin guinea-pig) A.U.C. 0 → 3h Index (bronchospasm) | Tachycardic effects (rat os) Index [1] | LD50 at 240 h [2] | also measured
CCCn1c(=O)c2c(nnn2CCN(CC)CC)n(-c2ccccc2)c1=O [MX8257] | 1,8 | 0 | > 1350 µmol/kg | 
CCCn1c(=O)c2nn(CCN(CC)CC)nc2n(-c2ccccc2)c1=O [MX8258] | 1,6 | 0 | > 1350 µmol/kg | 
CCCn1c(=O)c2c(nnn2CCN(C)C)n(CC(C)CC)c1=O (centres unmarked) [MX8271] | 1,9 | 0 | > 1480 µmol/kg | 
CCCn1c(=O)c2nn(CCN(C)C)nc2n(CC(C)CC)c1=O (centres unmarked) [MX8272] | 2,1 | 0 | 1370 µmol/kg | 
CCCn1c(=O)c2c(nnn2CCN2CCCCC2)n(-c2ccccc2)c1=O [MX82103] | 1,7 | 0 | 910 µmol/kg | 
CCCn1c(=O)c2nn(CCN3CCCCC3)nc2n(-c2ccccc2)c1=O [MX82104] | 2,1 | 0 | 1310 µmol/kg | 
CCCn1c(=O)c2c(nnn2CCN2CCOCC2)n(-c2ccccc2)c1=O [MX82105, 1-n-propyl-3-phenyl-7-(2-morpholinoethyl)-8-azaxanthine] | 2,4 | 0 | > 1300 µmol/kg | 
CCCn1c(=O)c2nn(CCN3CCOCC3)nc2n(-c2ccccc2)c1=O [MX82106, 1-n-propyl-3-phenyl-8-(2-morpholinoethyl)-8-azaxanthine] | 2,9 | 0 | > 1300 µmol/kg | 
CCC(C)Cn1c(=O)[nH]c(=O)c2c1nnn2CCN(CC)CC (centres unmarked) [MX82108] | 1,3 | 0 | > 1550 µmol/kg | 
CCC(C)Cn1c(=O)[nH]c(=O)c2nn(CCN(CC)CC)nc21 (centres unmarked) [MX82109] | 1,1 | 0,3 | > 1550 µmol/kg | 
Cn1c(=O)c2[nH]cnc2n(C)c1=O [THEOPHYLLINE, 1.3-dimethylxanthine, reference compound] |  |  |  | ED50 (bronchospasm; Cavia porcellus, po, guinea pig, 0.5% ovalbumin aerosol, read-out: ED50, inhibition of bronchoconstriction): 250 µmol/kg; blood pressure effect ([1]; rat): slight hypotension; heart rate effect ([1]; rat): marked dose-dependent tachycardia; dosage producing a 30% increase in heart rate ([1]; rat, 30 min): 0.21 mmol/kg; dosage producing a 30% increase in heart rate ([1]; rat, 90 min): 0.36 mmol/kg; dosage producing a 30% increase in heart rate ([1]; rat, 180 min): 0.57 mmol/kg; ED50 [3]: 150 µmol/kg; ED50 [4]: 75 µmol/kg
